Laboratory results as given in patent publication US8802694B2, “3,6-diazabicyclo[3.1.1]heptanes as neuronal nicotinic acetycholine receptor ligands” (Targacept, Inc., priority 2009, dated 2014).
Where two headings read alike, the source gives them in different places.

What was measured:
Human α4β2 = biological target: T1, Human α4β2 (Homo sapiens, UniProt P17787+P43681); assay: Competition binding to human α4β2 receptors in membranes of SH-EP1/human α4β2 cells ([3H]-nicotine)
T1 construct: host or cells: SH-EP1

Rat α4β2 = biological target: T2, Rat α4β2 (Rattus norvegicus, UniProt P09483+P12390); assay: Competition binding to rat α4β2 receptors in rat cortical membranes
T2 construct: Rat cortices were obtained from Analytical Biological Services; tissue Analytical Biological Services, Incorporated (ABS, Wilmington, Del.); host or cells: rat cortex (female Sprague-Dawley)
Experimental: Preparation of membranes from rat tissues. Rat cortices were obtained from Analytical Biological Services, Incorporated (ABS, Wilmington, Del.). Tissues were dissected from female Sprague-Dawley rats, frozen and shipped on dry ice. Tissues were stored at −20° C. until needed for membrane preparation. […] The resulting homogenate was centrifuged at 40,000 g for 20 minutes at 4° C. and the resulting pellet was resuspended in 20 volumes of ice-cold water. After 60-minute incubation at 4° C., a new pellet was collected by centrifugation at 40,000 g for 20 minutes at 4° C. The final pellet was resuspended in preparative buffer and stored at −20° C. On the day of the assay, tissue was thawed, centrifuged at 40,000 g for 20 minutes and then resuspended in PBS (Dulbecco's Phosphate Buffered Saline, Life Technologies, pH 7.4) to a final concentration of 2-3 mg protein/mL. Protein concentrations were determined using the Pierce BCA Protein Assay kit (Pierce Biotechnology, Rockford, Ill.), with bovine serum albumin as the standard.
Competition binding to receptors in membrane preparations. […] In brief, membranes were reconstituted from frozen stocks (approximately 0.2 mg protein) and incubated for 2 h on ice in […] assay buffer (PBS) in the presence of competitor compound (0.001 nM to […]) and radioligand. [^3H]-nicotine (L-(−)-[N-methyl-3H]-nicotine, 69.5 Ci/mmol, Perkin-Elmer Life Sciences) was used for human α4β2 binding studies. [^3H]-epibatidine (52 Ci/mmol, Perkin-Elmer Life Sciences) was used for binding studies at the other receptor subtypes. […] Filters were washed 3 times and the radioactivity retained was determined by liquid scintillation counting.
Binding data analysis. Binding data were expressed as percent total control binding. Replicates for each point were averaged and plotted against the log of drug concentration.

α6β3β4α5 = biological target: T3, α6β3β4α5 (Homo sapiens, UniProt P30926+Q15825); assay: Competition binding to α6β3β4α5 receptors in membranes of SH-EP1/α6β3β4α5 cells ([3H]-epibatidine); settings: membrane competition binding
T3 construct: host or cells: SH-EP1

[1] = Human α4β2 Ki, membrane competition binding
[2] = Rat α4β2 Ki, rat cortex membranes
[3] = membrane competition binding, read-out: Human α4β2 Ki
[4] = rat cortex membranes, read-out: Rat α4β2 Ki

SMILES | Ki (Human α4β2; [1]) | Ki (Rat α4β2; [2]) | Ki (α6β3β4α5; read-out: α6β3β4α5 Ki) | Ki (Human α4β2; [3]) | Ki (α6β3β4α5; α6β3β4α5 Ki) | other results
O=C(CC1CCC1)N1C2CNCC1C2 | 53 nM | 30 nM | 360 nM |  |  | 
CC1(C)CC1C(=O)N1C2CNCC1C2 (stereo not shown) | 75 nM | 45 nM | 800 nM |  |  | 
C[C@@H]1C(C(=O)N2C3CNCC2C3)[C@@H]1C (stereo partly shown) |  |  | 2400 nM | 610 nM |  | 
O=C([C@@H]1C[C@H]1c1ccccc1)N1C2CNCC1C2 | 30 nM | 51 nM | 350 nM |  |  | 
O=C(C1CC12CCC2)N1C2CNCC1C2 (stereo not shown) | 38 nM | 32 nM | 340 nM |  |  | 
O=C(C1CC12CCCC2)N1C2CNCC1C2 (stereo not shown) |  |  | 610 nM | 280 nM |  | 
O=C(C1C2CCCCC21)N1C2CNCC1C2 (stereo not shown) |  |  | 6400 nM | 310 nM |  | 
CCC[C@H]1C[C@H]1C(=O)N1C2CNCC1C2 |  |  | 1100 nM | 570 nM |  | 
CC1CC(C(=O)N2C3CNCC2C3)C1 (stereo not shown) | 49 nM | 58 nM | 770 nM |  |  | 
O=C(C1CC(F)(F)C1)N1C2CNCC1C2 | 54 nM | 16 nM | 510 nM |  |  | 
O=C(C1CC2C=CC1C2)N1C2CNCC1C2 (stereo not shown) |  |  | 900 nM | 200 nM |  | Ki (Rat α4β2; [4]): 380 nM
O=C(C1C2C3CCC(C3)C12)N1C2CNCC1C2 (stereo not shown) |  |  | 100000 nM | 1900 nM |  | 
O=C([C@@H]1C[C@H]2C=C[C@H]1C2)N1C2CNCC1C2 |  |  | 1300 nM | 300 nM |  | 
C[C@H]1C[C@@H]1C(=O)N1C2CNCC1C2 |  |  | 31000 nM | 210 nM |  | 
C[C@@H]1C[C@@H]1C(=O)N1C2CNCC1C2 |  |  | 30000 nM | 820 nM |  | 
C[C@@H]1C[C@H]1C(=O)N1C2CNCC1C2 | 9.2 nM | 50 nM | 1700 nM |  |  | 
C[C@H]1C[C@H]1C(=O)N1C2CNCC1C2 | 9.6 nM |  | 1800 nM |  |  | Ki (Rat α4β2; [4]): 180 nM

SMILES | Ki (Human α4β2; [1]) | Ki (Rat α4β2; [2]) | Ki (α6β3β4α5; read-out: α6β3β4α5 Ki) | Ki (Human α4β2; [3]) | Ki (α6β3β4α5; α6β3β4α5 Ki) | other results
O=C([C@@H]1C[C@@H]1F)N1CC2CC(C1)N2 | 1.8 nM | 0.86 nM |  |  | 280 nM | 
O=C([C@@H]1C[C@H]1F)N1CC2CC(C1)N2 |  | 0.54 nM |  | 1 nM | 91 nM | 
C[C@H]1C[C@H]1C(=O)N1CC2CC(C1)N2 | 1.8 nM | 0.39 nM |  |  | 58 nM | 
C[C@@H]1C[C@H]1C(=O)N1CC2CC(C1)N2 |  | 0.08 nM |  | 1 nM | 95 nM | 
[2H]C1([2H])C([2H])([2H])C1([2H])C(=O)N1CC2CC(C1)N2 | 0.49 nM | 0.24 nM |  |  | 120 nM | 
O=C(CC(F)(F)F)N1CC2CC(C1)N2 [3-(2,2,2-trifluoroethyl)carbonyl-3,6-diazabicyclo[3.1.1]heptane] | 11 nM | 25 nM | 1700 nM |  |  | 
O=C(c1ccc(Br)o1)N1CC2CC(C1)N2 [3-(2-bromofuran-5-yl)carbonyl-3,6-diazabicyclo[3.1.1]heptane] | 25 nM | 83 nM | 1800 nM |  |  | 
O=C(c1cc(Br)co1)N1CC2CC(C1)N2 [3-(3-bromofuran-5-yl)carbonyl-3,6-diazabicyclo[3.1.1]heptane] | 35 nM | 80 nM | 2700 nM |  |  | 
O=C(c1occc1Cl)N1CC2CC(C1)N2 [3-(3-chlorofuran-2-yl)carbonyl-3,6-diazabicyclo[3.1.1]heptane] |  |  | 2400 nM |  |  | Ki (Human α4β2; read-out: Human α4β2 Ki, membrane competition binding): 7.9 nM; Ki (Rat α4β2; read-out: Rat α4β2 Ki, rat cortex membranes): 56 nM
O=C(C1CC1)N1CC2CC(C1)N2 [3-cyclopropylcarbonyl-3,6-diazabicyclo[3.1.1]heptane] |  | 2.3 nM |  | 3 nM | 140 nM | 
CC(C)C(=O)N1CC2CC(C1)N2 [3-isopropylcarbonyl-3,6-diazabicyclo[3.1.1]heptane] | 220 nM | 23 nM |  |  | 830 nM | 
O=C([C@H]1C[C@H]1F)N1CC2CC(C1)N2 [drawing 110] | 5.2 nM | 1.1 nM |  |  | 530 nM | 
O=C([C@H]1C[C@@H]1F)N1CC2CC(C1)N2 [drawing 111] | 4.5 nM | 0.81 nM |  |  | 120 nM | 
C[C@H]1C[C@@H]1C(=O)N1CC2CC(C1)N2 [drawing 157] | 7.6 nM | 100 nM |  |  | 2600 nM | 
O=C([C@H]1C[C@H]1F)N1CC2CC(C1)N2 [drawing 163] |  | 0.53 nM |  | 1.1 nM | 150 nM | 
O=C([C@H]1C[C@@H]1F)N1CC2CC(C1)N2 [drawing 165] | 4.6 nM | 1.6 nM |  |  | 780 nM | 
C[C@H]1C[C@@H]1C(=O)N1CC2CC(C1)N2 [drawing 170] | 13 nM | 4.8 nM |  |  | 1700 nM | 
